Assay results taken from patent publication US7285619B2, “Echinocandin derivatives, their method of preparation and their application as anti-fungal agents” (Aventis Pharma S.A., priority 1997, dated 2007).

Tested on: glucane Synthesis of Candida albicans
Experiment: Inhibition of the glucane synthesis of Candida albicans (membrane preparation, 14C-UDP glucose incorporation)
Assay type: biochemical
Details: purified Candida albicans membranes, 25° C., 1 hour, result in words
Method: Tablets have been prepared containing: • The product of example 14 . . . 150 mg • Excipient q.s.p. . . . 1 g (Detail of the excipient: starch, talc, magnesium stearate). Pharmacological Study A—Inhibition of the glucane Synthesis of Candida albicans.
The membranes of Candida albicans are purified according to the process described by Tang and al Antimicrob. Agents Chemother 35, 99-103, 1991. 22.5 μg of membrane proteins are incubated in a mixture of 2 Mm of 14C-UDP glucose (specific activity=0.34 mCi./mmol, 50 μg of α-amylase, 1 Mm of dithiotreitol (DTT), 1 Mm EDTA, 100 Mm NaF, 7 μM of GTP-γ-S, 1M of sucrose and 5 oMm OF Ttris-HCL (pH 7.8) in a volume of 100 μl. The medium is incubated at 25° C. for 1 hour and the reaction terminated by addition of TCA to a final concentration of 5%. The reaction medium is transferred onto a pre-humidified glass fibre filter. The filter is washed, dried and its radioactivity is counted.
Mulundocandin is used as positive control.
The control of the medium is carried out with the same quantity of DMSO 1%.

Row | Molecule | activity in the test of inhibition of the glucane synthesis of Candida albicans
1 | CCCCCCCCOc1ccc(-c2ccc(C(=O)NC3CC(NCCN)CNC(=O)C4C(O)C(C)CN4C(=O)C(CO)NC(=O)C(C(O)Cc4ccc(O)cc4)NC(=O)C4CC(O)CN4C(=O)C(C(C)O)NC3=O)cc2)cc1.O=C(O)C(F)(F)F (single isomer, unassigned; isomer a) [Example 14, Trifluoroacetate of 1-[4-[(2-aminoethyl)amino]N2-[[4′-(octyloxy)[1.1′-biphenyl]-4-yl]carbonyl]-L-ornithine]4-[4-(4-hydroxyphenyl)-L-threonine]-5-L Serine Echinocandin B (Isomer A)] | good activity
2 | (±) Trifluoroacetate of 1-[4-[(aminoiminomethyl) Hydrazono]-N2-(12-methyl-1-oxotetradecyl)-L-ornithine]4-[4-(4-hydroxyphenyl)-L-threonine]-5-L Serine Echinocandin B [Example 11] | good activity
3 | Trifluoroacetate of 1-[4-[(2-aminoethyl)amino]-N2-(12-methyl-1-oxotetradecyl)-L-ornithine]4-[4-(4-hydroxyphenyl)-L-threonine]-5-L Serine Echinocandin B (Isomer A and Isomer B) [Example 9] | good activity
